Laboratory results from PubChem BioAssay AID1963832 (Molecular Pharmacology Branch, DTP, NCI, 2024).

Test system: 885724-159-R-J1-PDC complex spheroid viability
Experiment: Anticancer human tumor 885724-159-R-J1-PDC patient-derived pancreatic adenocarcinoma cell line growth inhibition [POLQ]
Conditions: for IC50: curve of first compound; for viability, T/C: stronger effect = lower value
In short: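 Growth inhibition in 3D: complex spheroids (tumor PDC, HUVEC, MSC) treated with POLQ inhibitor combinations; where Cmax unknown, highest tested concentration 10 microM, except SN-38 at 1 microM.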

[1] = second compound 0.0316 µM, first compound 0.00316 µM
[2] = second compound 0.0316 µM, first compound 0.01 µM
[3] = second compound 0.0316 µM, first compound 0.0316 µM
[4] = second compound 0.0316 µM, first compound 0.1 µM
[5] = second compound 0.0316 µM, first compound 0.316 µM
[6] = second compound 0.0316 µM, first compound 1 µM
[7] = second compound 0.1 µM, first compound 0.00316 µM
[8] = second compound 0.1 µM, first compound 0.01 µM
[9] = second compound 0.1 µM, first compound 0.0316 µM
[10] = second compound 0.1 µM, first compound 0.1 µM
[11] = second compound 0.1 µM, first compound 0.316 µM
[12] = second compound 0.1 µM, first compound 1 µM
[13] = second compound 0.316 µM, first compound 0.00316 µM
[14] = second compound 0.316 µM, first compound 0.01 µM
[15] = second compound 0.316 µM, first compound 0.0316 µM
[16] = second compound 0.316 µM, first compound 0.1 µM
[17] = second compound 0.316 µM, first compound 0.316 µM
[18] = second compound 0.316 µM, first compound 1 µM
[19] = second compound 1 µM, first compound 0.00316 µM
[20] = second compound 1 µM, first compound 0.01 µM
[21] = second compound 1 µM, first compound 0.0316 µM
[22] = second compound 1 µM, first compound 0.1 µM
[23] = second compound 1 µM, first compound 0.316 µM
[24] = second compound 1 µM, first compound 1 µM
[25] = second compound 3.16 µM, first compound 0.00316 µM
[26] = second compound 3.16 µM, first compound 0.01 µM
[27] = second compound 3.16 µM, first compound 0.0316 µM
[28] = second compound 3.16 µM, first compound 0.1 µM
[29] = second compound 3.16 µM, first compound 0.316 µM
[30] = second compound 3.16 µM, first compound 1 µM
[31] = second compound 10 µM, first compound 0.00316 µM
[32] = second compound 10 µM, first compound 0.01 µM
[33] = second compound 10 µM, first compound 0.0316 µM
[34] = second compound 10 µM, first compound 0.1 µM
[35] = second compound 10 µM, first compound 0.316 µM
[36] = second compound 10 µM, first compound 1 µM
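Further: spheroids exposed to compounds for 7 days.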

Question: With CCc1c2c(nc3ccc(O)cc13)-c1cc3c(c(=O)n1C2)COC(=O)[C@]3(O)CC + COC1C(OC(N)=O)C(O)C(Oc2ccc3c(O)c(NC(=O)c4ccc(O)c(CC=C(C)C)c4)c(=O)oc3c2C)OC1(C)C as the molecule, how does the IC50 (second compound 0.0316 µM) read?
Answer: 42.2 nM

Question: And the IC50 (second compound 0.1 µM)?
Answer: 48.9 nM

Question: What about the IC50 (second compound 0.316 µM) of the same molecule?
Answer: 38.3 nM

Question: And the IC50 (second compound 1 µM)?
Answer: 41.1 nM

Question: What about the IC50 (second compound 3.16 µM) of the same molecule?
Answer: 35.3 nM

Question: What about the IC50 (second compound 10 µM) of the same molecule?
Answer: 35.8 nM

Question: And the viability, T/C [1]?
Answer: 66.3%

Question: What about the viability, T/C [2] of the same molecule?
Answer: 58.3%

Question: What about the viability, T/C [3] of the same molecule?
Answer: 44.8%

Question: And the viability, T/C [4]?
Answer: 47.9%

Question: And the viability, T/C [5]?
Answer: 29%

Question: And the viability, T/C [6]?
Answer: 5.01%

Question: What about the viability, T/C [7] of the same molecule?
Answer: 73.1%

Question: What about the viability, T/C [8] of the same molecule?
Answer: 58.2%

Question: What about the viability, T/C [9] of the same molecule?
Answer: 47.3%

Question: What about the viability, T/C [10] of the same molecule?
Answer: 49.9%

Question: And the viability, T/C [11]?
Answer: 28.7%

Question: What about the viability, T/C [12] of the same molecule?
Answer: 4.25%

Question: What about the viability, T/C [13] of the same molecule?
Answer: 80.1%

Question: And the viability, T/C [14]?
Answer: 54.3%

Question: What about the viability, T/C [15] of the same molecule?
Answer: 48.6%

Question: And the viability, T/C [16]?
Answer: 45.7%

Question: What about the viability, T/C [17] of the same molecule?
Answer: 30.9%

Question: What about the viability, T/C [18] of the same molecule?
Answer: 5%

Question: And the viability, T/C [19]?
Answer: 75.9%

Question: What about the viability, T/C [20] of the same molecule?
Answer: 60.4%

Question: What about the viability, T/C [21] of the same molecule?
Answer: 44.1%

Question: What about the viability, T/C [22] of the same molecule?
Answer: 49.9%

Question: And the viability, T/C [23]?
Answer: 27.6%

Question: And the viability, T/C [24]?
Answer: 4.79%

Question: And the viability, T/C [25]?
Answer: 76.4%

Question: And the viability, T/C [26]?
Answer: 59%

Question: What about the viability, T/C [27] of the same molecule?
Answer: 45.1%

Question: And the viability, T/C [28]?
Answer: 44.3%

Question: And the viability, T/C [29]?
Answer: 30%

Question: And the viability, T/C [30]?
Answer: 4.76%

Question: What about the viability, T/C [31] of the same molecule?
Answer: 68.7%

Question: What about the viability, T/C [32] of the same molecule?
Answer: 52.3%

Question: What about the viability, T/C [33] of the same molecule?
Answer: 48.9%

Question: And the viability, T/C [34]?
Answer: 43.5%

Question: What about the viability, T/C [35] of the same molecule?
Answer: 27.5%

Question: What about the viability, T/C [36] of the same molecule?
Answer: 4.27%

Question: Cn1ncnc1[C@H]1c2n[nH]c(=O)c3cc(F)cc(c23)N[C@@H]1c1ccc(F)cc1 + COC1C(OC(N)=O)C(O)C(Oc2ccc3c(O)c(NC(=O)c4ccc(O)c(CC=C(C)C)c4)c(=O)oc3c2C)OC1(C)C was tested. Which IC50 (second compound 0.0316 µM) did it give?
Answer: > 100 nM

Question: And the IC50 (second compound 0.1 µM)?
Answer: > 100 nM

Question: What about the IC50 (second compound 0.316 µM) of the same molecule?
Answer: > 100 nM

Question: What about the IC50 (second compound 1 µM) of the same molecule?
Answer: > 100 nM

Question: What about the IC50 (second compound 3.16 µM) of the same molecule?
Answer: > 100 nM

Question: What about the IC50 (second compound 10 µM) of the same molecule?
Answer: > 100 nM

Question: What about the viability, T/C (second compound 0.0316 µM, first compound 0.000316 µM) of the same molecule?
Answer: 91.2%

Question: And the viability, T/C (second compound 0.0316 µM, first compound 0.001 µM)?
Answer: 103%

Question: And the viability, T/C [1]?
Answer: 92.2%

Question: And the viability, T/C [2]?
Answer: 94.9%

Question: What about the viability, T/C [3] of the same molecule?
Answer: 87%

Question: And the viability, T/C [4]?
Answer: 72.1%

Question: And the viability, T/C (second compound 0.1 µM, first compound 0.000316 µM)?
Answer: 101%

Question: And the viability, T/C (second compound 0.1 µM, first compound 0.001 µM)?
Answer: 95.3%

Question: What about the viability, T/C [7] of the same molecule?
Answer: 94.5%

Question: And the viability, T/C [8]?
Answer: 93.6%

Question: And the viability, T/C [9]?
Answer: 89.8%

Question: And the viability, T/C [10]?
Answer: 82.8%

Question: And the viability, T/C (second compound 0.316 µM, first compound 0.000316 µM)?
Answer: 113%

Question: What about the viability, T/C (second compound 0.316 µM, first compound 0.001 µM) of the same molecule?
Answer: 92%

Question: And the viability, T/C [13]?
Answer: 95.6%

Question: What about the viability, T/C [14] of the same molecule?
Answer: 95.4%

Question: What about the viability, T/C [15] of the same molecule?
Answer: 89.4%

Question: What about the viability, T/C [16] of the same molecule?
Answer: 78.7%

Question: And the viability, T/C (second compound 1 µM, first compound 0.000316 µM)?
Answer: 105%

Question: And the viability, T/C (second compound 1 µM, first compound 0.001 µM)?
Answer: 86.6%

Question: And the viability, T/C [19]?
Answer: 95.7%

Question: What about the viability, T/C [20] of the same molecule?
Answer: 85%

Question: What about the viability, T/C [21] of the same molecule?
Answer: 83.6%

Question: What about the viability, T/C [22] of the same molecule?
Answer: 77%

Question: What about the viability, T/C (second compound 3.16 µM, first compound 0.000316 µM) of the same molecule?
Answer: 105%

Question: And the viability, T/C (second compound 3.16 µM, first compound 0.001 µM)?
Answer: 87.5%

Question: And the viability, T/C [25]?
Answer: 90.2%

Question: And the viability, T/C [26]?
Answer: 98.5%

Question: What about the viability, T/C [27] of the same molecule?
Answer: 93.7%

Question: And the viability, T/C [28]?
Answer: 75.7%

Question: And the viability, T/C (second compound 10 µM, first compound 0.000316 µM)?
Answer: 95.1%

Question: What about the viability, T/C (second compound 10 µM, first compound 0.001 µM) of the same molecule?
Answer: 97.4%

Question: And the viability, T/C [31]?
Answer: 85%

Question: And the viability, T/C [32]?
Answer: 90.5%

Question: What about the viability, T/C [33] of the same molecule?
Answer: 88.4%

Question: And the viability, T/C [34]?
Answer: 75.3%

Question: For O=C(c1cc(Cc2n[nH]c(=O)c3ccccc23)ccc1F)N1CCN(C(=O)C2CC2)CC1 + COC1C(OC(N)=O)C(O)C(Oc2ccc3c(O)c(NC(=O)c4ccc(O)c(CC=C(C)C)c4)c(=O)oc3c2C)OC1(C)C, which IC50 (second compound 0.0316 µM) is on record?
Answer: > 10000 nM

Question: And the IC50 (second compound 0.1 µM)?
Answer: > 10000 nM

Question: And the IC50 (second compound 0.316 µM)?
Answer: > 10000 nM

Question: What about the IC50 (second compound 1 µM) of the same molecule?
Answer: > 10000 nM

Question: And the IC50 (second compound 3.16 µM)?
Answer: > 10000 nM

Question: And the IC50 (second compound 10 µM)?
Answer: > 10000 nM

Question: And the viability, T/C [3]?
Answer: 101%

Question: What about the viability, T/C [4] of the same molecule?
Answer: 93.9%

Question: And the viability, T/C [5]?
Answer: 91.4%

Question: And the viability, T/C [6]?
Answer: 88.3%

Question: What about the viability, T/C (second compound 0.0316 µM, first compound 3.16 µM) of the same molecule?
Answer: 90.8%

Question: And the viability, T/C (second compound 0.0316 µM, first compound 10 µM)?
Answer: 78.9%

Question: And the viability, T/C [9]?
Answer: 97.4%

Question: And the viability, T/C [10]?
Answer: 85.9%

Question: What about the viability, T/C [11] of the same molecule?
Answer: 86%

Question: What about the viability, T/C [12] of the same molecule?
Answer: 88%

Question: And the viability, T/C (second compound 0.1 µM, first compound 3.16 µM)?
Answer: 86.3%

Question: And the viability, T/C (second compound 0.1 µM, first compound 10 µM)?
Answer: 83.9%

Question: And the viability, T/C [15]?
Answer: 94.8%

Question: What about the viability, T/C [16] of the same molecule?
Answer: 91.4%

Question: And the viability, T/C [17]?
Answer: 90.3%

Question: And the viability, T/C [18]?
Answer: 89.2%

Question: What about the viability, T/C (second compound 0.316 µM, first compound 3.16 µM) of the same molecule?
Answer: 85.5%

Question: What about the viability, T/C (second compound 0.316 µM, first compound 10 µM) of the same molecule?
Answer: 75.7%

Question: And the viability, T/C [21]?
Answer: 85.8%

Question: And the viability, T/C [22]?
Answer: 89.6%

Question: What about the viability, T/C [23] of the same molecule?
Answer: 89.5%

Question: And the viability, T/C [24]?
Answer: 95.8%

Question: What about the viability, T/C (second compound 1 µM, first compound 3.16 µM) of the same molecule?
Answer: 85.4%

Question: What about the viability, T/C (second compound 1 µM, first compound 10 µM) of the same molecule?
Answer: 79.9%

Question: What about the viability, T/C [27] of the same molecule?
Answer: 96.4%

Question: What about the viability, T/C [28] of the same molecule?
Answer: 85.7%

Question: And the viability, T/C [29]?
Answer: 104%

Question: And the viability, T/C [30]?
Answer: 85.5%

Question: What about the viability, T/C (second compound 3.16 µM, first compound 3.16 µM) of the same molecule?
Answer: 92.8%

Question: And the viability, T/C (second compound 3.16 µM, first compound 10 µM)?
Answer: 79.7%

Question: And the viability, T/C [33]?
Answer: 96.3%

Question: What about the viability, T/C [34] of the same molecule?
Answer: 83%

Question: What about the viability, T/C [35] of the same molecule?
Answer: 92.4%

Question: And the viability, T/C [36]?
Answer: 85.1%

Question: What about the viability, T/C (second compound 10 µM, first compound 3.16 µM) of the same molecule?
Answer: 91.1%

Question: What about the viability, T/C (second compound 10 µM, first compound 10 µM) of the same molecule?
Answer: 69.9%
